According to patent US8658568B2, “6-amino-2-substituted-5-vinylsilylpyrimidine-4-carboxylic acids and esters and 4-amino-6-substituted-3-vinylsilylpyridine-2-carboxylic acids and esters as herbicides” (Dow AgroSciences, LLC., priority 2011, dated 2014):

Assays:
[1] = system: CHEAL = lambsquarters (Chenopodium album); experiment: Postemergence herbicidal activity, lambsquarters; assay type: in vivo; details: post-emergence, 336 h, post-emergent, rate 140 g ai/ha, visual score after 14 days (0 no injury, 100 complete kill), read-out: % Growth Reduction CHEAL
Procedure: (§1) Evaluation of Postemergence Herbicidal Activity
(§2) Seeds or nutlets of the desired test plant species were planted in Sun Gro MetroMix® 306 planting mixture, which typically has a pH of 6.0 to 6.8 and an organic matter content of about 30 percent, in plastic pots with a surface area of 64 square centimeters. When required to ensure good germination and healthy plants, a fungicide treatment and/or other chemical or physical treatment was applied. The plants were grown for 7-21 days in a greenhouse with an approximate 15 hour photoperiod which was maintained at about 23-29° C. during the day and 22-28° C. during the night. Nutrients and water were added on a regular basis and supplemental lighting was provided with overhead metal halide 1000-Watt lamps as necessary. The plants were employed for testing when they reached the first or second true leaf stage.
(§3) A weighed amount, determined by the highest rate to be tested, of each test compound was placed in a 25 mL glass vial and was dissolved in 4 mL of a 97:3 v/v (volume/volume) mixture of acetone and dimethyl sulfoxide (DMSO) to obtain concentrated stock solutions. […] The concentrated stock solutions obtained were diluted with 20 mL of an aqueous mixture containing acetone, water, isopropyl alcohol, DMSO, Atplus 411F crop oil concentrate, and Triton® X-155 surfactant in a 48.5:39:10:1.5:1.0:0.02 v/v ratio to obtain spray solutions containing the highest application rates. Additional application rates were obtained by serial dilution of 12 mL of the high rate solution into a solution containing 2 mL of 97:3 (v/v) mixture of acetone and dimethyl sulfoxide (DMSO) and 10 mL of an aqueous mixture containing acetone, water, isopropyl alcohol, DMSO, Atplus 411F crop oil concentrate, and Triton X-155 surfactant in a 48.5:39:10:1.5:1.0:0.02 (v/v) ratio to obtain 1/2 ×, 1/4 ×, 1/8× and 1/16× rates of the high rate. Compound requirements are based upon a 12 mL application volume at a rate of 187 L/ha. Formulated compounds were applied to the plant material with an overhead Mandel track sprayer equipped with a 8002E nozzles calibrated to deliver 187 L/ha over an application area of 0.503 square meters at a spray height of 18 inches (43 cm) above the average plant canopy height. Control plants were sprayed in the same manner with the solvent blank.
(§4) The treated plants and control plants were placed in a greenhouse as described above and watered by sub-irrigation to prevent wash-off of the test compounds. After 14 days, the condition of the test plants as compared with that of the untreated plants was determined visually and scored on a scale of 0 to 100 percent where 0 corresponds to no injury and 100 corresponds to complete kill
(§5) By applying the well-accepted probit analysis as described by J. Berkson in Journal of the […], 48, 565 (1953) and by D. Finney in “Probit Analysis” Cambridge University Press (1952), the above data can be used to calculate GR50 and GR80 values, which are defined as growth reduction factors that correspond to the effective dose of herbicide required to kill or control 50 percent or 80 percent, respectively, of a target plant.

[2] = system: ECHCG = barnyardgrass (Echinochloa crus-galli); experiment: Postemergence herbicidal activity, barnyardgrass; assay type: in vivo; details: post-emergence, 336 h, post-emergent, rate 140 g ai/ha, visual score after 14 days (0 no injury, 100 complete kill), read-out: % Growth Reduction ECHCG
Procedure: as §1, §2, §3, §4, §5

[3] = system: EPHHL = wild poinsettia (Euphorbia heterophylla); experiment: Postemergence herbicidal activity, wild poinsettia; assay type: in vivo; details: post-emergence, 336 h, post-emergent, rate 140 g ai/ha, visual score after 14 days (0 no injury, 100 complete kill), read-out: % Growth Reduction EPHHL
Procedure: as §1, §2, §3, §4, §5

[4] = system: IPOHE = ivyleaf morningglory (Ipomoea hederacea); experiment: Postemergence herbicidal activity, ivyleaf morningglory; assay type: in vivo; details: post-emergence, 336 h, post-emergent, rate 140 g ai/ha, visual score after 14 days (0 no injury, 100 complete kill), read-out: % Growth Reduction IPOHE
Procedure: as §1, §2, §3, §4, §5

[5] = system: ABUTH = velvetleaf (Abutilon theophrasti); experiment: Postemergence herbicidal activity, velvetleaf; assay type: in vivo; details: post-emergence, 336 h, post-emergent, rate 140 g ai/ha, visual score after 14 days (0 no injury, 100 complete kill), read-out: % Growth Reduction ABUTH
Procedure: as §1, §2, §3, §4, §5

[6] = system: HELAN = sunflower (Helianthus annuus); experiment: Postemergence herbicidal activity, sunflower; assay type: in vivo; details: post-emergence, 336 h, post-emergent, rate 140 g ai/ha, visual score after 14 days (0 no injury, 100 complete kill), read-out: % Growth Reduction HELAN
Procedure: as §1, §2, §3, §4, §5

[7] = system: AMARE = redroot pigweed (Amaranthus retroflexus); experiment: Postemergence herbicidal activity, redroot pigweed; assay type: in vivo; details: post-emergence, 336 h, post-emergent, rate 140 g ai/ha, visual score after 14 days (0 no injury, 100 complete kill), read-out: % Growth Reduction AMARE
Procedure: as §1, §2, §3, §4, §5

COC(=O)c1nc(-c2ccc(Cl)c(F)c2F)nc(N)c1/C=C/[Si](C)(C)C [Compound 1, (E)-methyl 6-amino-2-(4-chloro-2,3-difluorophenyl)-5-(2-(trimethylsilyl)vinyl)pyrimidine-4-carboxylate]
pest or weed control at 140 g/ha [1]: 100%
pest or weed control at 140 g/ha [2]: 85%
pest or weed control at 140 g/ha [3]: 50%
pest or weed control at 140 g/ha [4]: 80%
pest or weed control at 140 g/ha [5]: 100%
pest or weed control at 140 g/ha [6]: 90%
pest or weed control at 140 g/ha [7]: 100%

COC(=O)c1nc(-c2ccc(Cl)c(OC)c2F)nc(N)c1/C=C/[Si](C)(C)C [Compound 2, (E)-methyl 6-amino-2-(4-chloro-2-fluoro-3-methoxyphenyl)-5-(2-(trimethylsilyl)vinyl)-pyrimidine-4-carboxylate]
melting point: 161 to 163 °C
pest or weed control at 140 g/ha [2]: 98%
pest or weed control at 140 g/ha [3]: 100%
pest or weed control at 140 g/ha [4]: 90%
pest or weed control at 140 g/ha [5]: 98%
pest or weed control at 140 g/ha [6]: 100%
pest or weed control at 140 g/ha [7]: 100%

COC(=O)c1nc(-c2ccc(Cl)cc2F)nc(N)c1/C=C/[Si](C)(C)C [Compound 3, (E)-methyl 6-amino-2-(4-chloro-2-fluorophenyl)-5-(2-(trimethylsilyl)vinyl)pyrimidine-4-carboxylate]
pest or weed control at 140 g/ha [1]: 100%
pest or weed control at 140 g/ha [2]: 0%
pest or weed control at 140 g/ha [3]: 100%
pest or weed control at 140 g/ha [4]: 70%
pest or weed control at 140 g/ha [5]: 100%
pest or weed control at 140 g/ha [6]: 90%
pest or weed control at 140 g/ha [7]: 100%

CCOC(=O)c1nc(C2CC2)nc(N)c1/C=C/[Si](C)(C)C [Compound 4, (E)-ethyl 6-amino-2-cyclopropyl-5-(2-(trimethylsilyl)vinyl)pyrimidine-4-carboxylate]
pest or weed control at 140 g/ha [1]: 100%
pest or weed control at 140 g/ha [2]: 0%
pest or weed control at 140 g/ha [3]: 100%
pest or weed control at 140 g/ha [4]: 100%
pest or weed control at 140 g/ha [5]: 0%
pest or weed control at 140 g/ha [6]: 0%

C[Si](C)(C)/C=C/c1c(N)nc(-c2ccc(Cl)c(F)c2F)nc1C(=O)O [Compound 5, (E)-6-amino-2-(4-chloro-2,3-difluorophenyl)-5-(2-(trimethylsilyl)vinyl)pyrimidine-4-carboxylic acid]
pest or weed control at 140 g/ha [1]: 100%
pest or weed control at 140 g/ha [2]: 50%
pest or weed control at 140 g/ha [3]: 100%
pest or weed control at 140 g/ha [4]: 60%
pest or weed control at 140 g/ha [5]: 100%
pest or weed control at 140 g/ha [6]: 90%
pest or weed control at 140 g/ha [7]: 90%

C[Si](C)(C)/C=C/c1c(N)nc(-c2ccc(Cl)cc2F)nc1C(=O)O [Compound 7, (E)-6-amino-2-(4-chloro-2-fluorophenyl)-5-(2-(trimethylsilyl)vinyl)pyrimidine-4-carboxylic acid]
pest or weed control at 140 g/ha [1]: 100%
pest or weed control at 140 g/ha [2]: 80%
pest or weed control at 140 g/ha [3]: 100%
pest or weed control at 140 g/ha [4]: 70%
pest or weed control at 140 g/ha [5]: 100%
pest or weed control at 140 g/ha [6]: 90%
pest or weed control at 140 g/ha [7]: 100%
